The target in experiment [1] is T1, Serine/threonine-protein kinase Nek9 (Homo sapiens, UniProt Q8TD19).
T1 sequence (Q8TD19 whole entry): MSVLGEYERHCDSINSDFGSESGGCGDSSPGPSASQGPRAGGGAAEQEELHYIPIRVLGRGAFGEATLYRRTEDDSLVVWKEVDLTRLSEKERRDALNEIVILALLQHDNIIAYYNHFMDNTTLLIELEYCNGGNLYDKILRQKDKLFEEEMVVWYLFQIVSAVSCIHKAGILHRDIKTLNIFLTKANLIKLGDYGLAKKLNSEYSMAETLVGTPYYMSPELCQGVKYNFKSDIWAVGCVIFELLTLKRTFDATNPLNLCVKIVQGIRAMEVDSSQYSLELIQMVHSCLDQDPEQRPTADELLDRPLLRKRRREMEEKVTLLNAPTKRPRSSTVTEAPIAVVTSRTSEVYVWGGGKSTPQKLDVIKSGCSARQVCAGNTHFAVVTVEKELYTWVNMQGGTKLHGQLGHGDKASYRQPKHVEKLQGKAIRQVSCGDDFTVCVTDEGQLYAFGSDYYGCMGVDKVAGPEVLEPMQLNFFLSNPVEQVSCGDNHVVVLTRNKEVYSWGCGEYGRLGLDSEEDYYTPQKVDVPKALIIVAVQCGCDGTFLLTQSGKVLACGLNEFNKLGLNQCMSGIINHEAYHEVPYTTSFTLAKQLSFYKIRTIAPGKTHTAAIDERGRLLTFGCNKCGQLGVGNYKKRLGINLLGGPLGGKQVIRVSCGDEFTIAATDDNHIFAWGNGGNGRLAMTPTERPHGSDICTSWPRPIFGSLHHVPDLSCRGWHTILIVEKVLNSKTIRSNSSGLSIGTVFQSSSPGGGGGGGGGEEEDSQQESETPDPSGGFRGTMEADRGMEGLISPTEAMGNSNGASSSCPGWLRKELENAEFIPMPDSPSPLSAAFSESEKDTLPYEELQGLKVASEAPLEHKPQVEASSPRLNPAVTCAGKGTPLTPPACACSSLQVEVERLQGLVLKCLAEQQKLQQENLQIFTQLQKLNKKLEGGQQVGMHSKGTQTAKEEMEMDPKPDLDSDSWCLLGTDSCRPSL

Experiment [2] concerns the target Insulin-like growth factor 1 receptor (Homo sapiens, UniProt P08069).
Experiment [3] has as its target T2, DNA replication licensing factor MCM4 (Homo sapiens, UniProt P33991).
T2 sequence (P33991 whole entry): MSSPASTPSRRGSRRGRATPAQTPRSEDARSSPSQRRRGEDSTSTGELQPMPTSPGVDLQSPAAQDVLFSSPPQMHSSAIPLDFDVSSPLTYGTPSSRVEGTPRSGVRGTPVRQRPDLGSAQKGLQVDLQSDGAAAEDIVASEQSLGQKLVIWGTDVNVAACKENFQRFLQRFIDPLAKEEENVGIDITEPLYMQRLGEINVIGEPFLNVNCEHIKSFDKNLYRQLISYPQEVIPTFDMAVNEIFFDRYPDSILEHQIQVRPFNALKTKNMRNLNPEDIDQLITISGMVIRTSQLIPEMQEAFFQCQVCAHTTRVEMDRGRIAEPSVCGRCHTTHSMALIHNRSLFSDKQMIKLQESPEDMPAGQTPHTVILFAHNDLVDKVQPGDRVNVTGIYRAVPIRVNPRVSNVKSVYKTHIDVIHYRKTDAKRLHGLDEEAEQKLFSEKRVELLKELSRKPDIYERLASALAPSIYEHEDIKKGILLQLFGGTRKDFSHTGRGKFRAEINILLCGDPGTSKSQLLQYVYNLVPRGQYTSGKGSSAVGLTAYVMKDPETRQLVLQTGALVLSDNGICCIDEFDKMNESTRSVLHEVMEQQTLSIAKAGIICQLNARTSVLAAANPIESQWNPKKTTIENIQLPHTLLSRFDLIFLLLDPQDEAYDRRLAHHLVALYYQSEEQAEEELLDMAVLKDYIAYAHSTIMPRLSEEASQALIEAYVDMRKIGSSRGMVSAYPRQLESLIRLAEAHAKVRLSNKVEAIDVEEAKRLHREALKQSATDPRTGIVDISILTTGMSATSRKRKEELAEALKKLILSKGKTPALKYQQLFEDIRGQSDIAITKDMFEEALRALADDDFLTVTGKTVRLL

Experiment [4] has as its target T3, Beta-adrenergic receptor kinase 1 (Homo sapiens, UniProt P25098).
T3 sequence (P25098 whole entry): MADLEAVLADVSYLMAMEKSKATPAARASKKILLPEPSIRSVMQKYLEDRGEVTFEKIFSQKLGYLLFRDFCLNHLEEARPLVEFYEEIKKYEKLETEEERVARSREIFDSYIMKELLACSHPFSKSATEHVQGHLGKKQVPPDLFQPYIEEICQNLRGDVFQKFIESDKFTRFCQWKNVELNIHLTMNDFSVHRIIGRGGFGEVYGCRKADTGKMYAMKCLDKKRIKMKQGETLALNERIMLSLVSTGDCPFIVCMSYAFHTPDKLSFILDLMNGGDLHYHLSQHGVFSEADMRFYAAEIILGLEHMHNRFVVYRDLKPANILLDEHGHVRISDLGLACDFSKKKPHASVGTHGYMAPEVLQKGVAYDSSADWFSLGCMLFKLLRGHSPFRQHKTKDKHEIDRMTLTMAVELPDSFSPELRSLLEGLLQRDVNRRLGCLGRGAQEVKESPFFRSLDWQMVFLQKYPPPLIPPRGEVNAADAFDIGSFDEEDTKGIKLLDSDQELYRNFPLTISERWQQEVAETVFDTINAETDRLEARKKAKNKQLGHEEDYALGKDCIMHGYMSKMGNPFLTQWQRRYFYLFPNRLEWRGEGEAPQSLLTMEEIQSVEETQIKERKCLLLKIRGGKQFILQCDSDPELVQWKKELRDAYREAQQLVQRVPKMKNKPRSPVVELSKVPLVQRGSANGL

The target in experiment [5] is Calcium/calmodulin-dependent protein kinase type II subunit delta (Homo sapiens, UniProt Q13557).
Experiment [6] concerns the target Mitogen-activated protein kinase 11 (Homo sapiens, UniProt Q15759).
In experiment [7] the target is Ras-related protein Rab-6A (Homo sapiens, UniProt P20340).
Experiment [8] addresses Serine/threonine-protein kinase PAK 4 (Homo sapiens, UniProt O96013).
Experiment [9] deals with Cyclin-dependent kinase 6 (Homo sapiens, UniProt Q00534).
Experiment [10] concerns the target Receptor-interacting serine/threonine-protein kinase 2 (Homo sapiens, UniProt O43353).
In experiment [11] the target is Rho-associated protein kinase 1 (Homo sapiens, UniProt Q13464).

Activity calls are given as the source filed them. Rule as the data show it, for most assays here: actives have a measured Kd and inactives only a lower limit. Bounds are passed on as bounds.
Also: in the data inactive means no Kd found up to 30 µM.

Chain of Rho-associated protein kinase 1 (Q13464 whole entry): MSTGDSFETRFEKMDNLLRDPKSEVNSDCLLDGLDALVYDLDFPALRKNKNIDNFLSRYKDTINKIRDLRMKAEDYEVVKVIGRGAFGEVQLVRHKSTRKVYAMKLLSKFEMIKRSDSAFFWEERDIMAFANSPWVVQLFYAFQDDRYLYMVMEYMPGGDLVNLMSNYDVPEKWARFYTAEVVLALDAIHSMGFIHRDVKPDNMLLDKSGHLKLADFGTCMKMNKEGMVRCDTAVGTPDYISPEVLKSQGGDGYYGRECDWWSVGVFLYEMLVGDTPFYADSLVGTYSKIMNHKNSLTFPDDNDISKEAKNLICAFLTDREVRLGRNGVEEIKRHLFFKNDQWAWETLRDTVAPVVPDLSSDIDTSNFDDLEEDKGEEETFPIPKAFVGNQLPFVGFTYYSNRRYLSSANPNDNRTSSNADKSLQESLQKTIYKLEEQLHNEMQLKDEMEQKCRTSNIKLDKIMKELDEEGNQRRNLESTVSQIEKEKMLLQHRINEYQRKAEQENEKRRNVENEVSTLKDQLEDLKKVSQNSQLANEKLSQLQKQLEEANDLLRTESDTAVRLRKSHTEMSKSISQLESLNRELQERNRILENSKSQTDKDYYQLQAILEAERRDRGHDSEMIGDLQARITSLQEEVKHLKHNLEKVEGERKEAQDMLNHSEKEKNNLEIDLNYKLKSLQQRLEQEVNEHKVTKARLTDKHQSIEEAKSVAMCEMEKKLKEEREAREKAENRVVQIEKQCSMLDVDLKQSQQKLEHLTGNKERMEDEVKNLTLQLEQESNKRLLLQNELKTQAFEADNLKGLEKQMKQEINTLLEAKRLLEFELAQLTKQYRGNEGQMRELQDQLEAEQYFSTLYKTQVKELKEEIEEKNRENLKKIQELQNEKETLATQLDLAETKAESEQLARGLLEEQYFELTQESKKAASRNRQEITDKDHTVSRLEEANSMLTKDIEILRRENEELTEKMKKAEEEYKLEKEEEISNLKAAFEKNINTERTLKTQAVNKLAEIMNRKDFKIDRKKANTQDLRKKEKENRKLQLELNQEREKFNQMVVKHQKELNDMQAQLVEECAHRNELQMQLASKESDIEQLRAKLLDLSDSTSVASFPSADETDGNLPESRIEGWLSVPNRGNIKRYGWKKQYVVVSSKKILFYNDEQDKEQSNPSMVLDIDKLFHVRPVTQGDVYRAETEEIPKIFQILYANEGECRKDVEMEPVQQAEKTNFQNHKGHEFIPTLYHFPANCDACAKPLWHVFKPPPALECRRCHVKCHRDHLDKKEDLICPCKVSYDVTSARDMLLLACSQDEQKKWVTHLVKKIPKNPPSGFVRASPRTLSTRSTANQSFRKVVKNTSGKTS
Chain of Insulin-like growth factor 1 receptor (P08069 31-736 limits assumed): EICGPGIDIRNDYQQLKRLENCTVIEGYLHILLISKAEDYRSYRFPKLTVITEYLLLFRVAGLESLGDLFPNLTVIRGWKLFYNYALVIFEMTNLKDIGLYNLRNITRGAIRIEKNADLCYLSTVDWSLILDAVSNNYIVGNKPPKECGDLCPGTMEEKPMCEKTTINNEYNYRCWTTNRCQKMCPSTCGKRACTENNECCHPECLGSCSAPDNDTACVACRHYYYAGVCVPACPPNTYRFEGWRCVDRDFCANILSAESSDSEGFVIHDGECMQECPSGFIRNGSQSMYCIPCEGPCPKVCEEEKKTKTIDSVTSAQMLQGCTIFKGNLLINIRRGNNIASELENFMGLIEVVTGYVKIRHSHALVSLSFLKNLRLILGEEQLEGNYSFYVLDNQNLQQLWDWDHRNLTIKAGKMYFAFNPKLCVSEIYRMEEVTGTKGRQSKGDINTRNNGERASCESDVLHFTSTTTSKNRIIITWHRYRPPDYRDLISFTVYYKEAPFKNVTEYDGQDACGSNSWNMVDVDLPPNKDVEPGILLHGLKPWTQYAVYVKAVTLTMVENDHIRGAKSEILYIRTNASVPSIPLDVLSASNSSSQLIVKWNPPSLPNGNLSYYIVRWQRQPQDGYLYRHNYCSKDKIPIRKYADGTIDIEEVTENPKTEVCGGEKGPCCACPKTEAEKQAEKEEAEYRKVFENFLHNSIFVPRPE
Chain of Insulin-like growth factor 1 receptor (P08069 741-1367 limits assumed): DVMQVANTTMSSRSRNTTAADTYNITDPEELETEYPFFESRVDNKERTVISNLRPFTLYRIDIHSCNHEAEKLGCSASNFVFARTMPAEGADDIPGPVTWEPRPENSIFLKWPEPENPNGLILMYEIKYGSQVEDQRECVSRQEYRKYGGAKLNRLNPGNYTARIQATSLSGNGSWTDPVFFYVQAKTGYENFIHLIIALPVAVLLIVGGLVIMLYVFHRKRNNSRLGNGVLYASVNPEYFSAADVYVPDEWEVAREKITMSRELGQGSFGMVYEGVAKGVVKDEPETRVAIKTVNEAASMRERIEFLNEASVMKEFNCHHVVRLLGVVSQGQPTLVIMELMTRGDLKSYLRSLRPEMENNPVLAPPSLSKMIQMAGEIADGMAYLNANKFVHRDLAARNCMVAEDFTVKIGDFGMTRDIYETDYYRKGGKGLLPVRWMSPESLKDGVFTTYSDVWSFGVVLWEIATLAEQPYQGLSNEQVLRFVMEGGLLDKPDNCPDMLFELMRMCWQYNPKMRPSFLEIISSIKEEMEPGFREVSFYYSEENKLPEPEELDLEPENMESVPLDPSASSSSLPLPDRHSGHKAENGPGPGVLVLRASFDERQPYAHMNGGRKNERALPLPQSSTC
Chain of Serine/threonine-protein kinase PAK 4 (O96013 whole entry): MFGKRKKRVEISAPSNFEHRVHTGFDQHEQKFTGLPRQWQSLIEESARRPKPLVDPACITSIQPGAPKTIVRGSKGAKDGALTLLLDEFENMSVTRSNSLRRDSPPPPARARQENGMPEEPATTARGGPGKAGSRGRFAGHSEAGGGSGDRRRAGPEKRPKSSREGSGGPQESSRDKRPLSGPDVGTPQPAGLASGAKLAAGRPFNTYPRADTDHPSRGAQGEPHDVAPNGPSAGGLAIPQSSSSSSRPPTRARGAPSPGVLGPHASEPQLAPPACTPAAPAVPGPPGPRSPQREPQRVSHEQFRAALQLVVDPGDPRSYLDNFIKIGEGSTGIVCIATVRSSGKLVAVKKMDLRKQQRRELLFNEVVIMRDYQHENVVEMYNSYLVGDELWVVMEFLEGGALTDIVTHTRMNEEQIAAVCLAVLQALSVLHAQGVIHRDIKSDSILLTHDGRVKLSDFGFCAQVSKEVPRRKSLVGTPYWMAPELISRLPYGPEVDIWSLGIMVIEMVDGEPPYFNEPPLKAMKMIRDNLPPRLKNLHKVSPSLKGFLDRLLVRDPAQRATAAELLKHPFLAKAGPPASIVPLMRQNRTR
Chain of Cyclin-dependent kinase 6 (Q00534 whole entry): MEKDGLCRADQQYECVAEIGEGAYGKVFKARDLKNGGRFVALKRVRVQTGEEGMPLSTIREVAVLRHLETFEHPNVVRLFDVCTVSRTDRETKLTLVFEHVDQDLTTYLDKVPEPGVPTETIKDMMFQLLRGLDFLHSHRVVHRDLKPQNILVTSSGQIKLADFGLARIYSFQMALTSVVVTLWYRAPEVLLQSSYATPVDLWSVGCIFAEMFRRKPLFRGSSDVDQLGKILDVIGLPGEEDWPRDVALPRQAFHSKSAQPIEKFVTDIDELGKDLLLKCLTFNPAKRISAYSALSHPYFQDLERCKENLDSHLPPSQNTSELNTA
Chain of Calcium/calmodulin-dependent protein kinase type II subunit delta (Q13557 whole entry): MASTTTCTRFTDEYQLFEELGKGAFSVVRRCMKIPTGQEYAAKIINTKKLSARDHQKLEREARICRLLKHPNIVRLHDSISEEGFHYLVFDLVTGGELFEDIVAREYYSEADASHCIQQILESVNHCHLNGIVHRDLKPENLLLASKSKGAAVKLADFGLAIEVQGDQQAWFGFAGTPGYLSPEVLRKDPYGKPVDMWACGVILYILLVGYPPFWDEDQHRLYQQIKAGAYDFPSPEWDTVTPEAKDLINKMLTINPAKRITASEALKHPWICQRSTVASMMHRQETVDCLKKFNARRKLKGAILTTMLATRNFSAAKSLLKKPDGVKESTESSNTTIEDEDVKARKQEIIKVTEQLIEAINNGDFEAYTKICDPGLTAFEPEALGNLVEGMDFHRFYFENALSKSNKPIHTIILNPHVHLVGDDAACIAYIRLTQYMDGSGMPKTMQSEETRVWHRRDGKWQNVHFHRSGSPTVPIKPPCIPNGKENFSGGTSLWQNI
Chain of Mitogen-activated protein kinase 11 (Q15759 whole entry): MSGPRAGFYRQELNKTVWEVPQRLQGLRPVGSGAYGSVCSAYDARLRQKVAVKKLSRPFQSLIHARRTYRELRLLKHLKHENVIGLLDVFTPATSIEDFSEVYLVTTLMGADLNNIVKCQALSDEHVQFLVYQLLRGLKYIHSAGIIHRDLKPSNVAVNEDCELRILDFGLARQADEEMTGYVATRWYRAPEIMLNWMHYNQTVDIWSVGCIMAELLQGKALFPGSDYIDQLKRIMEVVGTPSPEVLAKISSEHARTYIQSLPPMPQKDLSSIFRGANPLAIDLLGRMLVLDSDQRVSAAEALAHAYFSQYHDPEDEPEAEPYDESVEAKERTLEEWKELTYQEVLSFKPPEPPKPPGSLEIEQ
Chain of Receptor-interacting serine/threonine-protein kinase 2 (O43353 whole entry): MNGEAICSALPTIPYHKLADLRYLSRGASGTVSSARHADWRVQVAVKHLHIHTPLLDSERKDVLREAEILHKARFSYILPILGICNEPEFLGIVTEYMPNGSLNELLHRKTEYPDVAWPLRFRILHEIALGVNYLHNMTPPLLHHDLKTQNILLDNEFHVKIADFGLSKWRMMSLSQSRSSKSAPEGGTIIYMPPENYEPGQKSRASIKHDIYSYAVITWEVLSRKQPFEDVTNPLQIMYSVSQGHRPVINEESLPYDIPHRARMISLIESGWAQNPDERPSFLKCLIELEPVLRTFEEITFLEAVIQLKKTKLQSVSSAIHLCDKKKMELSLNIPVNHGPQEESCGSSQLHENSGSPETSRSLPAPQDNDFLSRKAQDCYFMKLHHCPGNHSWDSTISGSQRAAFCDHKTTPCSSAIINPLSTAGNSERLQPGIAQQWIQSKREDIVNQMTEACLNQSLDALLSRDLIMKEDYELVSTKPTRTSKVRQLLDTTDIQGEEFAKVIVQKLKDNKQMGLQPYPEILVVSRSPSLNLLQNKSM

As to `CN1CCC(COc2cnc(-c3cccc(Cn4nc(-c5cccc(C#N)c5)ccc4=O)c3)nc2)CC1` [TEPOTINIB], the Kd in experiment [1], in [2], in experiment [3], in experiment [4], in experiment [5] and in [6] was > 30 µM (inactive) in each case. Also, the Kd in experiment [7], in experiment [8], in experiment [9], in experiment [10] and in [11] was > 30 µM (inactive) each time.

With `CCCS(=O)(=O)Nc1ccc(F)c(C(=O)c2c[nH]c3ncc(-c4ccc(Cl)cc4)cc23)c1F` [VEMURAFENIB], the Kd in experiment [1], in experiment [2], in experiment [3], in experiment [4], in [5] and in [6] was > 30 µM (inactive) in each case. Moreover, the Kd in experiment [7] is > 30 µM (inactive); in experiment [8] it was > 30 µM (inactive); in experiment [9] it was > 30 µM (inactive); in experiment [10], 0.427 µM (active); in [11] it was > 30 µM (inactive).

On to `O=C(O)[C@]1(Cc2cccc(Nc3nccs3)n2)CC[C@@H](Oc2cccc(Cl)c2F)CC1` [MK-5108], for which the Kd in [1], in experiment [2], in experiment [3], in experiment [4], in experiment [5] and in experiment [6] was > 30 µM (inactive) in each case. Also, the Kd in experiment [7], in [8], in [9], in [10] and in experiment [11] was > 30 µM (inactive) each time.

Turning to `CC[C@@H]1C(=O)N(C)c2cnc(Nc3ccc(C(=O)N[C@H]4CC[C@H](N5CCN(CC6CC6)CC5)CC4)cc3OC)nc2N1C(C)C` [VOLASERTIB], the Kd in [1], in experiment [2], in experiment [3], in experiment [4], in experiment [5] and in [6] was > 30 µM (inactive) in each case. Further, the Kd in experiment [7], in [8], in [9], in [10] and in [11] was > 30 µM (inactive) in each case.

As to `Cc1cc(-c2cc(O)ccc2Cl)cc2nnc(Nc3ccc(OCCN4CCCC4)cc3)nc12`, the Kd in experiment [1], in [2], in experiment [3], in experiment [4], in experiment [5] and in [6] was > 30 µM (inactive) in each case. For the same compound, the Kd in experiment [7] is > 30 µM (inactive); in experiment [8] it was > 30 µM (inactive); in [9], > 30 µM (inactive); in [10], 0.0009 µM (active); in experiment [11] it was > 30 µM (inactive).

For the compound `CCn1c(=O)c(-c2cc[nH]n2)cc2c(C)nc(N)nc21` [VOXTALISIB], the Kd in experiment [1], in experiment [2], in [3], in [4], in [5] and in experiment [6] was > 30 µM (inactive) throughout. Moreover, the Kd in [7], in [8], in [9], in experiment [10] and in experiment [11] was > 30 µM (inactive) each time.

`Cn1ncc(Cl)c1-c1cc(C(=O)N[C@H](CN)Cc2cccc(F)c2)sc1Cl` [AFURESERTIB]: the Kd in experiment [1], in [2], in experiment [3], in experiment [4], in [5] and in [6] was > 30 µM (inactive) each time. Besides, the Kd in [7] was > 30 µM (inactive); in experiment [8] it was > 30 µM (inactive); in [9], > 30 µM (inactive); in experiment [10] it was > 30 µM (inactive); in experiment [11] it was 2.14 µM (active).

Turning to `Cc1cc2c(F)c(Oc3ncnn4cc(OC[C@@H](C)OC(=O)[C@H](C)N)c(C)c34)ccc2[nH]1` [BRIVANIB ALANINATE], the Kd in [1], in [2], in experiment [3], in [4], in experiment [5] and in [6] was > 30 µM (inactive) throughout. Besides, the Kd in experiment [7], in experiment [8], in [9], in [10] and in [11] was > 30 µM (inactive) each time.

Consider `CN1CCC(CNc2ccc3ncc(-c4cccc(OC(F)(F)F)c4)n3n2)CC1` [SGI-1776], for which the Kd in [1], in experiment [2], in experiment [3], in [4], in experiment [5] and in experiment [6] was > 30 µM (inactive) throughout. Further, the Kd in experiment [7], in experiment [8], in experiment [9], in experiment [10] and in [11] was > 30 µM (inactive) in each case.

The values above are taken from ChEMBL document CHEMBL3991601, “The target landscape of clinical kinase drugs” (Science, 2017).
